# Several values for one entry are separate records, joined by “and”; a condition that tells them apart may be missing. Equal entries are not always repeated. Inconclusive results and toxic doses are left out. Square brackets hold non-standard residues; d marks the D form. Peptide text beside a SMILES is read from it. Abu = CC[CH](N)C(=O)O
# System: P388 leukemia ip, CD2F1 mice, survival T/C
# Experiment: NCI In Vivo Anticancer Drug Screen. Data for tumor model P388 Leukemia (intraperitoneal) in CD2F1 (CDF1) mice
# Conditions: endpoint: median survival time, higher = longer survival
# How it was run: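 Mice carrying the transplanted tumor received test compound or vehicle. Survival was recorded in each group, and the value is the treated-group measurement divided by that of the vehicle-treated control group.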
# [1] = dose: 100.0 mg/kg/injection, schedule: Q01DX009 (ip), vehicle: saline with Tween-80
# [2] = dose: 200.0 mg/kg/injection, schedule: Q01DX009 (ip), vehicle: saline with Tween-80
# [3] = dose: 50.0 mg/kg/injection, schedule: Q01DX005 (ip), vehicle: Klucel (hydroxypropylcellulose) (HPC)
# [4] = dose: 100.0 mg/kg/injection, schedule: Q01DX005 (ip), vehicle: Klucel (hydroxypropylcellulose) (HPC)
# [5] = dose: 200.0 mg/kg/injection, schedule: Q01DX005 (ip), vehicle: Klucel (hydroxypropylcellulose) (HPC)
# [6] = dose: 50.0 mg/kg/injection, schedule: Q01DX005 (ip), vehicle: saline
# [7] = dose: 100.0 mg/kg/injection, schedule: Q01DX005 (ip), vehicle: saline
# [8] = dose: 200.0 mg/kg/injection, schedule: Q01DX005 (ip), vehicle: saline
# [9] = dose: 50.0 mg/kg/injection, schedule: Q01DX009 (ip), vehicle: saline with Tween-80
# [10] = dose: 60.0 mg/kg/injection, schedule: Q01DX005 (ip), vehicle: Klucel (hydroxypropylcellulose) (HPC)
# [11] = dose: 120.0 mg/kg/injection, schedule: Q01DX005 (ip), vehicle: Klucel (hydroxypropylcellulose) (HPC)
# [12] = dose: 240.0 mg/kg/injection, schedule: Q01DX005 (ip), vehicle: Klucel (hydroxypropylcellulose) (HPC)
# [13] = dose: 50.0 mg/kg/injection, schedule: Q01DX005 (ip), vehicle: saline with Tween-80
# [14] = dose: 100.0 mg/kg/injection, schedule: Q01DX005 (ip), vehicle: saline with Tween-80
# [15] = dose: 200.0 mg/kg/injection, schedule: Q01DX005 (ip), vehicle: saline with Tween-80
# [16] = dose: 25.0 mg/kg/injection, schedule: Q01DX005 (ip), vehicle: saline with Tween-80
# [17] = dose: 50.0 mg/kg/injection, schedule: Q01DX009 (ip), vehicle: saline
# [18] = dose: 100.0 mg/kg/injection, schedule: Q01DX009 (ip), vehicle: saline
# [19] = dose: 25.0 mg/kg/injection, schedule: Q01DX009 (ip), vehicle: saline
# [20] = dose: 200.0 mg/kg/injection, schedule: Q01DX009 (ip), vehicle: saline
structure (smiles),measurement,setting,value
Cc1ccc(C(=O)C2(c3ccc(C)cc3)CCCCC2)cc1,T/C,"dose: 50.0 mg/kg/injection, schedule: Q04DX002 (ip), vehicle: Klucel (hydroxypropylcellulose) (HPC)",91 % of control
same,T/C,"dose: 100.0 mg/kg/injection, schedule: Q04DX002 (ip), vehicle: Klucel (hydroxypropylcellulose) (HPC)",90 % of control
same,T/C,"dose: 200.0 mg/kg/injection, schedule: Q04DX002 (ip), vehicle: Klucel (hydroxypropylcellulose) (HPC)",95 % of control
same,T/C,"dose: 400.0 mg/kg/injection, schedule: Q04DX002 (ip), vehicle: Klucel (hydroxypropylcellulose) (HPC)",91 % of control
O=C1NC(=S)N/C1=C\c1ccc(Cl)c(Cl)c1,T/C,[1],95 % of control
same,T/C,[2],94 % of control
same,T/C,"dose: 400.0 mg/kg/injection, schedule: Q01DX009 (ip), vehicle: saline with Tween-80",91 % of control
Cn1c2c(c(=O)c3cc(O)ccc31)CC(C(C)(C)O)O2 (stereo not given),T/C,[3],104 % of control
same,T/C,[4],105 % of control
same,T/C,[5],104 % of control
[NH-]c1ccccc1[S-].[NH-]c1ccccc1[S-].[Zn],T/C,"dose: 100.0 mg/kg/injection, schedule: Q04DX003 (ip), vehicle: saline",98 % of control
same,T/C,"dose: 200.0 mg/kg/injection, schedule: Q04DX003 (ip), vehicle: saline",95 % of control
same,T/C,"dose: 400.0 mg/kg/injection, schedule: Q04DX003 (ip), vehicle: saline",95 % of control
Cc1c(-c2ccccc2)ccnc1/C=N/NC(=S)NCCc1ccccc1,T/C,[1],101 % of control and 95 % of control
CCC(N)C(=O)NC(CO)C(=O)O (stereo not given) (H-[Abu]-Ser-OH; configuration not given here),T/C,[6],106 % of control
same,T/C,[7],109 % of control
same,T/C,[8],106 % of control
CCc1cccc(CC)c1NC(=S)NC(=O)c1ccccc1,T/C,[9],95 % of control
same,T/C,[1],96 % of control
same,T/C,[2],96 % of control
COc1cccc2ccc(-c3ccccc3)[s+]c12,T/C,[10],97 % of control
same,T/C,[11],98 % of control
same,T/C,[12],104 % of control
C[C@@H]1CC2=CC(=O)CC[C@@H]2[C@H]2CC[C@@]3(C)[C@@H](CC[C@]3(C)O)[C@@H]21,T/C,"dose: 25.0 mg/kg/injection, schedule: Q01DX009 (ip), vehicle: saline with Tween-80",100 % of control
same,T/C,"dose: 25.0 mg/kg/injection, schedule: Q04DX003 (ip), vehicle: saline with Tween-80",100 % of control
same,T/C,[9],105 % of control
same,T/C,"dose: 50.0 mg/kg/injection, schedule: Q04DX003 (ip), vehicle: saline with Tween-80",91 % of control
same,T/C,[1],105 % of control
same,T/C,"dose: 100.0 mg/kg/injection, schedule: Q04DX003 (ip), vehicle: saline with Tween-80",104 % of control
same,T/C,"dose: 200.0 mg/kg/injection, schedule: Q04DX003 (ip), vehicle: saline with Tween-80",100 % of control
same,T/C,"dose: 400.0 mg/kg/injection, schedule: Q04DX003 (ip), vehicle: saline with Tween-80",90 % of control
Cc1cc(Cl)ccc1NC(=O)C1C(=O)CC(C)(C)CC1=O,T/C,[13],93 % of control
same,T/C,[14],101 % of control
same,T/C,[15],111 % of control
O=C1CN(c2cccc(C(F)(F)F)c2)C(=O)CN1/N=C/c1ccco1,T/C,"dose: 12.5 mg/kg/injection, schedule: Q01DX005 (ip), vehicle: saline with Tween-80",100 % of control
same,T/C,[16],105 % of control
same,T/C,[13],99 % of control and 100 % of control
COc1c(Br)cnc2ccccc12,T/C,"dose: 12.5 mg/kg/injection, schedule: Q01DX009 (ip), vehicle: distilled water + Tween-80",96 % of control
same,T/C,"dose: 25.0 mg/kg/injection, schedule: Q01DX009 (ip), vehicle: distilled water + Tween-80",96 % of control
same,T/C,"dose: 50.0 mg/kg/injection, schedule: Q01DX009 (ip), vehicle: distilled water + Tween-80",102 % of control
same,T/C,"dose: 100.0 mg/kg/injection, schedule: Q01DX009 (ip), vehicle: distilled water + Tween-80",102 % of control
same,T/C,"dose: 200.0 mg/kg/injection, schedule: Q01DX009 (ip), vehicle: distilled water + Tween-80",93 % of control
CCC(C)n1c(C)nc2ncn(-c3ccccc3)c2c1=O (stereo not given),T/C,[3],100 % of control
same,T/C,[4],103 % of control
same,T/C,[5],105 % of control
C/C(=N\N=C(N)N)c1c(C)nn(C(=N)N)c1C,T/C,"dose: 15.0 mg/kg/injection, schedule: Q01DX005 (ip), vehicle: saline",99 % of control
same,T/C,"dose: 30.0 mg/kg/injection, schedule: Q01DX005 (ip), vehicle: saline",98 % of control
same,T/C,"dose: 60.0 mg/kg/injection, schedule: Q01DX005 (ip), vehicle: saline",99 % of control and 111 % of control
O=C(O)/C=N/NS(=O)(=O)c1ccc(Cl)cc1,T/C,"dose: 6.25 mg/kg/injection, schedule: Q01DX009 (ip), vehicle: other",101 % of control
same,T/C,"dose: 12.5 mg/kg/injection, schedule: Q01DX009 (ip), vehicle: other",122 % of control
same,T/C,"dose: 50.0 mg/kg/injection, schedule: Q01DX009 (ip), vehicle: other",159 % of control
same,T/C,"dose: 100.0 mg/kg/injection, schedule: Q01DX009 (ip), vehicle: other",99 % of control
N#C/C(=C\C(Cl)=C/c1ccccc1)C(N)=S,T/C,[17],103 % of control
same,T/C,[18],100 % of control
CCn1c(=O)c2c(ncn2C)n(C)c1=O,T/C,"dose: 6.25 mg/kg/injection, schedule: Q01DX009 (ip), vehicle: saline",100 % of control
same,T/C,"dose: 12.5 mg/kg/injection, schedule: Q01DX009 (ip), vehicle: saline",101 % of control
same,T/C,[19],100 % of control
same,T/C,[17],100 % of control
CC(=O)C(CCCn1c(=O)c2c(ncn2C)n(C)c1=O)C(C)=O,T/C,"dose: 25.0 mg/kg/injection, schedule: Q01DX005 (ip), vehicle: Klucel (hydroxypropylcellulose) (HPC)",102 % of control
same,T/C,[3],105 % of control
same,T/C,[4],98 % of control
CN(C)C(=S)SC(=S)Sc1c(Cl)c(Cl)c(Cl)c(Cl)c1Cl,T/C,[9],99 % of control
same,T/C,[1],100 % of control
same,T/C,[2],99 % of control
O=C(NC(=O)C(F)(F)F)Nc1ccc(Cl)cc1,T/C,[9],99 % of control
same,T/C,[1],105 % of control
NCc1ccc(Cc2ccc(CN)cc2)cc1,T/C,[9],100 % of control
same,T/C,[1],100 % of control
O=C1NC2(CCN(Cc3ccccc3)CC2)Nc2ccccc21,T/C,[3],99 % of control
same,T/C,[4],99 % of control
same,T/C,[5],97 % of control
COc1cc(O)c(C(C)=O)c2c1C=CC(C)(C)O2,T/C,[13],102 % of control
same,T/C,[14],105 % of control
same,T/C,[15],100 % of control
Cc1cc2nnc(-c3cccc([N+](=O)[O-])c3)n2c2nnnn12,T/C,[16],100 % of control
same,T/C,[13],102 % of control
same,T/C,[14],98 % of control
same,T/C,[15],100 % of control
CCC1(O)C(=O)Nc2ccc(OC)cc2C1=O (stereo not given),T/C,[10],97 % of control
same,T/C,[11],93 % of control
same,T/C,[12],93 % of control
O=C1C2=C(Nc3ccccc3N2)OC1c1ccc2c(c1)OCO2 (stereo not given),T/C,[10],100 % of control
same,T/C,[11],86 % of control
same,T/C,[12],89 % of control
C=C1CC=CC(C)(C)C12CC(Br)C(C)(Cl)CC2O (stereo not given),T/C,"dose: 10.0 mg/kg/injection, schedule: Q01DX009 (ip), vehicle: Klucel (hydroxypropylcellulose) (HPC)",115 % of control
same,T/C,"dose: 20.0 mg/kg/injection, schedule: Q01DX009 (ip), vehicle: Klucel (hydroxypropylcellulose) (HPC)",109 % of control
same,T/C,"dose: 40.0 mg/kg/injection, schedule: Q01DX009 (ip), vehicle: Klucel (hydroxypropylcellulose) (HPC)",106 % of control
N=C(N)SCc1csc(N)n1,T/C,[19],105 % of control
same,T/C,[17],102 % of control
same,T/C,[18],109 % of control
same,T/C,[20],108 % of control
CNc1ncn(-c2c(C)cccc2C)c(=O)n1,T/C,"dose: 60.0 mg/kg/injection, schedule: Q01DX005 (ip), vehicle: saline with Tween-80",101 % of control and 106 % of control
same,T/C,"dose: 120.0 mg/kg/injection, schedule: Q01DX005 (ip), vehicle: saline with Tween-80",108 % of control
same,T/C,"dose: 240.0 mg/kg/injection, schedule: Q01DX005 (ip), vehicle: saline with Tween-80",117 % of control
CC/C(=N/NS(=O)(=O)c1ccc(C)cc1)c1ccc(Cl)cc1,T/C,[17],97 % of control
same,T/C,[18],92 % of control
same,T/C,[20],99 % of control
CC(=O)NCCSSCCCCS(=O)O,T/C,[6],106 % of control and 115 % of control
same,T/C,[7],118 % of control and 121 % of control
same,T/C,[8],124 % of control

# Reference: PubChem BioAssay AID330 (DTP/NCI, 2004)
